Data from patent publication US7550438B2, “Methods for production of growth-promoting proteins and peptides for kidney epithelial cells” (The University of Chicago, priority 1997, dated 2009).
“Also recorded” adds a separate entry of the source.

Experiments:
[1] = system: monkey kidney epithelial cells of the BSC-1 line; experiment: Growth-promoting (mitogenic) activity: number of cells in BSC-1 cultures counted four days after addition; format: cell-based, African green monkey; settings: for stimulation of growth (increase in cell number compared to control at four days): agent alone at maximal mitogenic concentration (14-Ser 0.5 μg/ml; EGF, IGF-I 50 ng/ml; acidic FGF 100 pg/ml; basic FGF 1,000 pg/ml; vasopressin 75 pg/ml; K 10.4 mM; Na 180 mM); for stimulation of growth in the presence of the 14-Ser peptide: mitogenic signal at maximal concentration plus 14-Ser peptide 0.5 μg/ml; for stimulation of growth in the presence of the 14-Ser peptide / mitogenic activity on BSC-1 cells (in words): four days; for EC50: peptide alone, BSC-1 cells, 4 days in culture, read-out: Growth-Stimulation K½; for mitogenic activity on BSC-1 cells (in words): peptide 0.5 to 20 μg/ml
Procedure: For the assay, cells were detached from the dish with a solution of trypsin and an aliquot was counted in a hemocytometer.
Nontransformed monkey kidney epithelial cells of the BSC-1 line were grown to confluence in Dulbecco's modified Eagle's medium containing 1% calf serum and […] in 55-mm culture dishes at 38° C. in a CO2 incubator. When cells achieved a density of about 10^6 per dish, the spent medium was removed and replaced with fresh medium containing 0.5% calf serum and the 14-amino acid peptide (0.5 μg/ml). Additions of each of the mitogenic signals at maximal concentration were made to the culture medium. Four days later the number of cells in each culture was counted in a hemocytometer. Values obtained were the mean of 3 separate cultures.
Nontransformed monkey kidney epithelial cells of the BSC-1 line were grown to confluence in Dulbecco's modified Eagle's medium containing 1% calf serum and 1.6 μM biotin at 38° C. in a CO2 incubator. When cells achieved a density of about 10^6 per dish, the spent medium was removed and replaced with fresh medium containing 0.5% calf serum and different amounts of the two peptides. Four days later the number of cells in each culture was counted. Each value is the mean of 3 separate cultures.
To delineate the sequence of the smallest peptide that could stimulate renal cell growth, synthetic peptides of different lengths were prepared (see below), and purified by reversed-phase HPLC on a C18 column.
The peptide of interest was then purified on a reversed-phase C18 column HPLC as described herein using a gradient of 1-80% acetonitrile in 0.1% trifluroacetic acid (TFA). The purified peptide was then lyophilized to remove the acetonitrile and TFA and the lyophilized powder was weighed, dissolved in buffer and added to the culture medium to measure its effect on the growth of monkey kidney epithelial cells as described herein. […] A value termed the K1/2, was used.

[2] = system: BSC-1 cells; experiment: Time of contact with cells required to commit them to accelerated growth (washout, count at four days); format: cell-based, African green monkey; settings: for exposure time sufficient for maximal growth stimulation (commitment time): peptide then washed off, cells counted four days later
Procedure: Confluent monolayers of BSC-1 cells are prepared as herein and exposed to the 14-Ser peptide (0.5 μg/ml) for different amounts of time (0 to 30 minutes). At the end of the defined exposure period, culture medium containing the mitogen was aspirated, the monolayer was rinsed to remove non-adherent peptide, and fresh medium was added. Four days later the number of cells in the culture was counted.
In these experiments a solution containing the peptide of interest was added to the cell monolayer; culture medium was then aspirated at a specified time thereafter. Then fresh medium without the peptide was added and the number of cells was counted four days later.

[3] = system: rats with mercuric chloride-induced acute renal failure; experiment: Mercuric chloride-induced acute renal failure in rats: survival and renal function; format: in vivo, rat
Excerpt: Nephrotoxic and ischemic acute renal failure (ARF) induced experimentally in rats have long been used to model this syndrome in humans. […] Male rats weighed 200-225 gm at the start of the experiment. This dose was used because preliminary experiments indicated it results in survival of 25-50% of the animals 7 days later. […] An increase in serum creatinine concentration signals a decline in renal function because the injured kidney is unable to excrete endogenous creatinine in the urine so it accumulates in the blood.
The synthetic peptide […] (14-Ser) (SEQ ID NO: 15) (dissolved in sterile 0.01% bovine serum albumin in phosphate-buffered saline) was injected subcutaneously into rats to determine its effect on survival, recovery of renal fucntion, and stimulation of DNA synthesis. Multiple different peptides were studied including 14-Ser, […] (14-mer) (SEQ ID NO: 39), […] (16-mer) (SEQ ID NO: 4) […] (11-mer) (SEQ ID NO: 6), and […] (11-mer) (SEQ ID NO: 41). Different concentrations and times of administration were tested and compared.
Acute tubular necrosis was induced in 44 rats by the subcutaneous (s.c.) injection of mercuric chloride, and a single dose of 14-ser was administered s.c. 1 hour afterwards. Different amounts of the peptide were given to assesses its capacity to affect the outcome. Survival 7 days later was about twice as high in animals given 100-150 μg of peptide (63%) than in rats given 0-75 μg peptide (29%).
To determine the effect of the peptide on survival and recovery of renal function, acute tubular necrosis was induced in 59 rats; 29 received 14-Ser (100 μg/rat) and 30 received an equal volume of the vehicle s.c. 1 hour after administration of mercuric chloride. Enhanced survival (top panel) and renal functional recovery (bottom panel) of rats give a WGF-derived peptide after mercuric chloride-induced acute tubular necrosis are shown in FIG. 2A and FIG. 2B. Mercuric chloride was injected subcutaneously into each of the 59 rats, and 1 hour later 100 μg of WGF peptide (14-Ser) (n=29 rats) or the vehicle […] was given. Survival was greater in rats given the peptide than in animals receiving the vehicle as early as day 3 after administration of mercuric chloride. Blood was obtained from the tail vein on the days indicated, and serum creatinine concentration was measured. […] On days 2, 3 and 4, the lower creatinine concentration in peptide-treated rats indicates accelerated recovery of kidney function.
Experimental ARF was induced in rats by subcutaneous injection of mercuric chloride. The synthetic peptide […] […] In one experiment a total of 17 rats were injected with a dose of mercuric chloride shown to induce ARF. The different amounts of the peptide (known to stimulate growth of kidney cells in culture) were injected into the animals to assess capacity to improve the outcome. […] In contrast, two of three rats given 100 micrograms of peptide were alive, as were five of six given 200 micrograms. In summary, none of eight rats (0%) given up to 50 micrograms of peptide survived, whereas seven of nine (78%) given 100-200 micrograms did. Thus, the 11-mer WGF peptide improves survival in nephrotoxic ARF.
[…] Four days later, 63% of rats given the 14-Ser peptide were alive compared to 25% of animals receiving the vehicle (chi squared, P-0.0499); 50% of rats receiving EGF were alive (chi squared, P=N.S.). On day 5, 50% of rats given EGF were alive, compared to 12.5% of animals given the vehicle (chi squared, P=0.0436). […] These observations indicate that the 14-Ser peptide and EGF given after renal injury are similar in their ability to improve survival from the ARF syndrome.

[4] = system: BSC-1 cells; experiment: Inhibition of WGF and WGF-derived peptide mitogenesis in BSC-1 cells; format: cell-based, African green monkey; settings: for effect of pentamer on growth stimulation by hexamer YPQGNH: pentamer added to culture medium, hexamer added at the same time or afterwards
Excerpt: In these studies the pentamers, PQGNH (SEQ ID NO: 36) or YPQGN (SEQ ID NO: 3) were synthesized, purified by HPLC and then assayed for growth-promoting activity. […] Because the pentamers are not mitogenic, when they bind to the site, growth is not observed. After pentamers are bound to the site, the pentamers appear to prevent the hexapeptide from gaining access to the membrane.
Transforming growth factor (TGF)-β2 is an autocrine growth inhibitor secreted by BSC-1 cells that limits proliferation in culture. Exogenous TGF-β2 was added to the culture medium to determine its capacity to inhibit the growth-promoting effect of 14-Ser. TGF-β2 at a concentration of 1 ng/ml was sufficient to abolish the 25% stimulation of growth induced by 14-Ser. At a TGF-β2 concentration of 2 ng/ml, growth was inhibited by 30% in the presence or absence of 14-Ser; at 10 ng/ml, inhibition was 60%.
Because TGF-β2 inhibits proliferation induced by diverse mitogens, a more specific inhibitor was sought. […] Cells were preincubated for 30 minutes with the pentapeptide YPQGN (SEQ ID NO: 3). The culture medium was then aspirated, the monolayer was rinsed, fresh medium was added, and the number of cells counted 4 days later. Preincubation of cells with YPQGN (SEQ ID NO: 3) inhibited the mitogenic effect of the 6-amino acid peptide.

[5] = system: BSC-1 cells; experiment: Appearance or release of WGF growth-promoting activity from BSC-1 cells (scrape wounding, heparinase); format: cell-based, African green monkey; settings: cells preincubated 10 minutes with the protease inhibitor
Procedure: None of these agents inhibited cell growth when added to cells of nonwounded cultures. When added to the medium after the appearance of WGF mitogenic activity, neither PMSF nor aprotinin appeared to inhibit the increment in cell proliferation.
Confluent monolayer cultures were mechanically scraped using a 200 μL pipet tip (Continental Laboratory Products, San Diego, Calif.). […] (This process of scraping the cells has been termed “wounding” and has been used for many years as a model system to study repair of corneal abrasions of the eye. In effect, pressure is applied to cells sufficient to disrupt intercellular adhesion). To determine whether kidney epithelial cells released an autocrine growth factor into the medium after wounding, conditioned culture medium was removed from the culture dish after scrape-wounding a monolayer of BSC-1 cells. An aliquot was assayed for any growth-promoting activity on a nonwounded “detector” culture (1.2×10^6 cells per […]).
Treatment of a confluent monolayer of BSC-1 cells with the enzyme heparinase I (Sigma), but not heparinase III (Sigma), releases WGF mitogenic activity from cells into the culture media. However, this seems to deplete WGF, at least temporarily. When cells are first treated with heparinase I, rinsed, the media aspirated, and the monolayer is then scrape-wounded, no growth-promoting activity is detected in the conditioned media.

`NC(=O)CC[C@@H]1NC(=O)[C@H](Cc2ccccc2)NC(=O)[C@H](Cc2ccc(O)cc2)NC(=O)[C@@H](N)CSSC[C@@H](C(=O)N2CCC[C@H]2C(=O)N[C@@H](CCCN=C(N)N)C(=O)NCC(N)=O)NC(=O)[C@H](CC(N)=O)NC1=O` [vasopressin, reference compound] was tested. Which “stimulation of growth (increase in cell number compared to control at four days)” value [1] did it give?
Its value is 14%.

And the “stimulation of growth in the presence of the 14-Ser peptide” value [1]?
Its value is 36%.

And the “exposure time sufficient for maximal growth stimulation (commitment time)” value (from here on “exposure time sufficient”) [2]?
Its value is 2 min.

With AQPYPEGNHEA as the molecule, how does the EC50 [1] read?
The EC50 was 206 nM.

What about the “rats dead three days later” value ([3]; 50 micrograms s.c. two hours after mercuric chloride) of the same molecule?
The value was “three of three”.

And the “survival three days later” value ([3]; 100-200 micrograms of peptide, nine rats)?
The value was 78%.

And the “rats alive three days later” value ([3]; 100 micrograms s.c. two hours after mercuric chloride)?
Its value is “two of three”.

And the “rats alive three days later” value ([3]; 200 micrograms s.c. two hours after mercuric chloride)?
The value was “five of six”.

What about the “survival three days later” value ([3]; up to 50 micrograms of peptide (incl. saline alone), eight rats) of the same molecule?
The value was 0%.

Which “mitogenic activity on BSC-1 cells (in words)” value [1] does the source give for YPQGN here?
Its value is “Neither was mitogenic; also recorded: do not alter growth”.

What about the “effect of preincubation on mitogenic effect of partially-purified Wound Growth Factor” value [4] of the same molecule?
The value was “completely abolished”.

What about the “effect of preincubation on mitogenic effect of the 6-amino acid peptide YPQGNH” value ([4]; cells preincubated 30 minutes, rinsed, count 4 days later) of the same molecule?
The value was “inhibited”.

And the “effect of pentamer on growth stimulation by hexamer YPQGNH” value [4]?
The value was “blocked”.

What about the “effect of preincubation on growth-promoting effect of the 14-Ser peptide” value ([4]; preincubation for 10 or 30 minutes) of the same molecule?
The value was “completely blocked”.

YPEGNH was tested. Which EC50 [1] did it give?
Its EC50 is 301 nM.

What about the “exposure time for maximal mitogenic effect after keratan sulfate pretreatment” value ([2]; cells exposed to keratan sulfate 2 μg/ml for 5 minutes before peptide) of the same molecule?
The value was 1.5 min.

And the “exposure time sufficient” value [2]?
The value was 3 min.

What does the source list for “epidermal growth factor [EGF, reference compound]”?
concentration equivalent in mitogenic potency to partially-purified WGF [1]: 0.015 µg/mL; stimulation of growth (increase in cell number compared to control at four days) [1]: 31%; combined mitogenic effect with WGF (additivity) ([1]; maximal concentrations, 11-mer with wound conditioned buffer): additive; stimulation of growth in the presence of the 14-Ser peptide [1]: 61%; exposure time sufficient for maximal growth stimulation (commitment time) [2]: 4 min; survival on day 6 ([3]; 14-Ser 100 μg 1 hour after, EGF 20 μg 2 hours after mercuric chloride, vehicle 12%): 37.5%; survival four days later ([3]; 14-Ser 100 μg s.c. 1 hour after, EGF 20 μg s.c. 2 hours after mercuric chloride 2.25 mg/kg, vehicle 25%): 50%; survival on day 5 ([3]; EGF 20 μg s.c. 2 hours after mercuric chloride, vehicle 12.5%): 50%; survival on day 4 ([3]; given 24 hours before mercuric chloride (EGF 20 μg, s.c.)): 25%

For `O=S(=O)(F)Cc1ccccc1` [PMSF, phenylmethylsulfonyl-fluoride], which “appearance of growth-promoting activity after wounding” value [5] is on record?
Its value is “prevented”.

“AQPYPQGNHEAQPYPQGNHEAQPYPQGNHEAQPYPQGNHE” was tested. Which EC50 [1] did it give?
Its EC50 is 7 nM.

What about the “exposure time sufficient” value [2] of the same molecule?
The value was “behaved similarly”.

With “Pentosan polysulfate [reference compound]” as the molecule, how does the “effect on activity of WGF” value [4] read?
Its value is “blocked”.

How did the “mitogenic activity on BSC-1 cells (in words)” value [1] turn out when PQGNH was run?
The value was “Neither was mitogenic; also recorded: do not alter growth”.

And the “effect of pentamer on growth stimulation by hexamer YPQGNH” value [4]?
The value was “blocked”.

For `Nc1ncnc2c1ncn2[C@@H]1O[C@H](COP(=O)(O)O)[C@@H](O)[C@H]1O` [adenosine monophosphate, reference compound], which commitment time [2] is on record?
Its commitment time is 14 h.

B1: TGF-β2: autocrine growth inhibitor secreted by BSC-1 cells (protein, UniProt P61811 303-414, looked up)
Transforming growth factor …: ALDAAYCFRNVQDNCCLRPLYIDFKRDLGWKWIHEPKGYNANFCAGACPYLWSSDTQHSRVLSLYNTINPEASASPCCVSQDLEPLTILYYIGKTPKIEQLSNMIVKSCKCS
What does the source list for B1?
effect on the 25% stimulation of growth induced by 14-Ser ([4]; TGF-β2 1 ng/ml): abolish; growth inhibition ([4]; TGF-β2 2 ng/ml, in the presence or absence of 14-Ser): 30%; growth inhibition ([4]; TGF-β2 10 ng/ml): 60%
